In patent US6908931B2, “Tetrahydroisoquinoline derivatives as melatonin MT2 antagonists” (Bristol-Myers Squibb Company, priority 2003, dated 2005):

molecular target: T1, human MT2 receptor (Homo sapiens, UniProt P49286); assay: Melatonin receptor binding assay (MT2), 2-[125I]-iodomelatonin; conditions: not given
T1 construct: melatonin MT1 and MT2 receptors cDNA were individually subcloned into pcDNA3 and introduced into NIH-3T3 cells using Lipofectamine; expressed in transfected cells
T1 sequence (P49286 1-362): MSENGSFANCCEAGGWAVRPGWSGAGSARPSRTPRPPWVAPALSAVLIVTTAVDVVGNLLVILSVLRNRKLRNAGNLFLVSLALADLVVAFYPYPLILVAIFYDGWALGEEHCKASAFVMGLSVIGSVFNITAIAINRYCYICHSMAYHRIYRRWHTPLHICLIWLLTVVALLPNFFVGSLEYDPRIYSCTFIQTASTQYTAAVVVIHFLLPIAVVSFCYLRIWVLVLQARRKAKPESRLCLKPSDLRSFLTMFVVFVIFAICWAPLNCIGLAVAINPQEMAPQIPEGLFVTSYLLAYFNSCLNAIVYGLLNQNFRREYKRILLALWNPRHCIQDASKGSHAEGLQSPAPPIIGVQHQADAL
Method: Melatonin receptor binding assay.
Membrane homogenates: melatonin MT1 and MT2 receptors cDNA were individually subcloned into pcDNA3 and introduced into NIH-3T3 cells using Lipofectamine. […] For preparing membrane homogenates, pellets are thawed on ice, and re-suspended in TME buffer in the presence of 10 μg/ml aprotinin and leupeptin, and 100 μM phenylmethylsulfonylfluoride. The cells were then homogenized using a dounce homogenizer, and centrifuged. The resulting pellet was re-suspended with dounce homogenizer in TME (supplemented with the above protease inhibitors) and frozen. On the day of assay, a small aliquot was thawed on ice and re-suspended in the ice cold TME (1:50-1:100 v/v) and held on ice until assayed. Incubation is at 37° C. for 1 hour. Reaction is terminated by filtration. Filters were washed 3 times.

Row | SMILES | IC50
1 | O=C(OCc1ccccc1)N1CCc2cc3c(cc2C1CCc1ccc(F)cc1)OCO3 (stereo not drawn) [Example 100] | 100 to 1000 nM

same assay, conditions: membrane homogenates of NIH-3T3 cells expressing MT2; 2-[125I]-iodomelatonin 0.2 nM; 37° C., 1 hour; read-out: MT2 IC50

Row | IC50 | SMILES
2 | 100 to 1000 nM | COc1ccc2c(c1)C(CC(c1ccccc1)c1ccccc1)N(C(=O)c1ccc(C)cc1)CC2 (stereo not drawn) [Example 82]
3 | 100 to 1000 nM | COc1ccc2c(c1)C(CC(c1ccccc1)c1ccccc1)N(C(=O)c1cc(C(F)(F)F)cc(C(F)(F)F)c1)CC2 (stereo not drawn) [Example 83]
4 | < 100 nM | COc1cc2c(cc1OC)C(CC(c1ccccc1)c1ccc(Cl)cc1)N(C(C)=O)CC2 (stereo not drawn) [Example 84]
5 | < 100 nM | COc1cc2c(cc1OC)C(CC(c1ccc(Cl)cc1)c1ccc(Cl)cc1)N(C(C)=O)CC2 (stereo not drawn) [Example 85]
6 | < 100 nM | COc1cccc(CCC2c3cc(OC)c(OC)cc3CCN2C(C)=O)c1 (stereo not drawn) [Example 86]
7 | < 100 nM | CCC(=O)N1CCc2cc(OC)c(OC)cc2C1CCc1cccc(OC)c1 (stereo not drawn) [Example 87]
8 | < 100 nM | CCNC(=O)N1CCc2cc(OC)c(OC)cc2C1CCc1cccc(OC)c1 (stereo not drawn) [Example 88]
9 | < 100 nM | COc1ccc2c(c1)C(CCc1ccc(F)cc1)N(C(C)=O)CC2 (stereo not drawn) [Example 90]
10 | 100 to 1000 nM | CC(=O)N1CCc2cc3c(cc2C1CC(c1ccccc1)c1ccccc1)OCO3 (stereo not drawn) [Example 91]
11 | 100 to 1000 nM | O=C(c1ccccc1)N1CCc2cc3c(cc2C1CCc1ccc(F)cc1)OCO3 (stereo not drawn) [Example 93]
12 | 100 to 1000 nM | CC(=O)N1CCc2cc3c(cc2C1CCc1ccc(F)cc1)OCO3 (stereo not drawn) [Example 94]
13 | < 100 nM | O=C(C1CC1)N1CCc2cc3c(cc2C1CCc1ccc(F)cc1)OCO3 (stereo not drawn) [Example 95]
14 | < 100 nM | COCC(=O)N1CCc2cc3c(cc2C1CCc1ccc(F)cc1)OCO3 (stereo not drawn) [Example 96]
15 | < 100 nM | O=C(CCl)N1CCc2cc3c(cc2C1CCc1ccc(F)cc1)OCO3 (stereo not drawn) [Example 98]
16 | < 100 nM | CCCC(=O)N1CCc2cc3c(cc2C1CCc1ccc(F)cc1)OCO3 (stereo not drawn) [Example 101]
17 | < 100 nM | O=C(C1CCCC1)N1CCc2cc3c(cc2C1CCc1ccc(F)cc1)OCO3 (stereo not drawn) [Example 102]
18 | < 100 nM | O=C(c1ccno1)N1CCc2cc3c(cc2C1CCc1ccc(F)cc1)OCO3 (stereo not drawn) [Example 103]
19 | 100 to 1000 nM | CC(=O)OCC(=O)N1CCc2cc3c(cc2C1CCc1ccc(F)cc1)OCO3 (stereo not drawn) [Example 104]
20 | < 100 nM | CCC(=O)N1CCc2cc3c(cc2C1CCc1ccc(F)cc1)OCO3 (stereo not drawn) [Example 105]
21 | 100 to 1000 nM | CC(C)COC(=O)N1CCc2cc3c(cc2C1CCc1ccc(F)cc1)OCO3 (stereo not drawn) [Example 106]
22 | 100 to 1000 nM | CC(C)(C)CC(=O)N1CCc2cc3c(cc2C1CCc1ccc(F)cc1)OCO3 (stereo not drawn) [Example 107]
23 | < 100 nM | COc1ccc2c(c1)C(CCc1ccc(F)cc1)N(C(=O)C1CC1)CC2 (stereo not drawn) [Example 109]
24 | < 100 nM | COCC(=O)N1CCc2ccc(OC)cc2C1CCc1ccc(F)cc1 (stereo not drawn) [Example 110]
25 | 100 to 1000 nM | COc1ccc(C(=O)N2CCc3ccc(OC)cc3C2CCc2ccc(F)cc2)cc1 (stereo not drawn) [Example 111]
26 | < 100 nM | COc1ccc2c(c1)C(CCc1ccc(F)cc1)N(C(=O)CCl)CC2 (stereo not drawn) [Example 112]

Row | IC50 | SMILES
27 | 100 to 1000 nM | COc1ccc2c(c1)C(CCc1ccc(F)cc1)N(C(=O)OCc1ccccc1)CC2 (stereo not drawn) [Example 114]
28 | < 100 nM | CCCC(=O)N1CCc2ccc(OC)cc2C1CCc1ccc(F)cc1 (stereo not drawn) [Example 115]
29 | < 100 nM | COc1ccc2c(c1)C(CCc1ccc(F)cc1)N(C(=O)C1CCCC1)CC2 (stereo not drawn) [Example 116]
30 | < 100 nM | COc1ccc2c(c1)C(CCc1ccc(F)cc1)N(C(=O)c1ccno1)CC2 (stereo not drawn) [Example 117]
31 | 100 to 1000 nM | COc1ccc2c(c1)C(CCc1ccc(F)cc1)N(C(=O)COC(C)=O)CC2 (stereo not drawn) [Example 118]
32 | < 100 nM | CCC(=O)N1CCc2ccc(OC)cc2C1CCc1ccc(F)cc1 (stereo not drawn) [Example 119]
33 | 100 to 1000 nM | COc1ccc2c(c1)C(CCc1ccc(F)cc1)N(C(=O)OCC(C)C)CC2 (stereo not drawn) [Example 120]
34 | 100 to 1000 nM | COc1ccc2c(c1)C(CCc1ccc(F)cc1)N(C(=O)CC(C)(C)C)CC2 (stereo not drawn) [Example 121]
35 | 100 to 1000 nM | COc1ccc2c(c1)C(CCc1ccc(F)cc1)N(C(=O)C=Cc1ccccc1)CC2 (stereo not drawn) [Example 122]
36 | 100 to 1000 nM | CC(=O)OCC(=O)N1CCc2cc3c(cc2C1CCc1ccc(F)cc1)OCC3 (stereo not drawn) [Example 133]
37 | 100 to 1000 nM | CC(C)COC(=O)N1CCc2cc3c(cc2C1CCc1ccc(F)cc1)OCC3 (stereo not drawn) [Example 135]
38 | 100 to 1000 nM | O=C(c1ccccc1)N1CCc2cc3c(cc2C1CCc1ccc(Cl)cc1)OCO3 (stereo not drawn) [Example 137]
39 | 100 to 1000 nM | CC(=O)N1CCc2cc3c(cc2C1CCc1ccc(Cl)cc1)OCO3 (stereo not drawn) [Example 138]
40 | < 100 nM | O=C(C1CC1)N1CCc2cc3c(cc2C1CCc1ccc(Cl)cc1)OCO3 (stereo not drawn) [Example 139]
41 | < 100 nM | COCC(=O)N1CCc2cc3c(cc2C1CCc1ccc(Cl)cc1)OCO3 (stereo not drawn) [Example 140]
42 | 100 to 1000 nM | COc1ccc(C(=O)N2CCc3cc4c(cc3C2CCc2ccc(Cl)cc2)OCO4)cc1 (stereo not drawn) [Example 141]
43 | 100 to 1000 nM | O=C(OCc1ccccc1)N1CCc2cc3c(cc2C1CCc1ccc(Cl)cc1)OCO3 (stereo not drawn) [Example 143]
44 | < 100 nM | CCCC(=O)N1CCc2cc3c(cc2C1CCc1ccc(Cl)cc1)OCO3 (stereo not drawn) [Example 144]
45 | 100 to 1000 nM | O=C(c1ccno1)N1CCc2cc3c(cc2C1CCc1ccc(Cl)cc1)OCO3 (stereo not drawn) [Example 145]
46 | 100 to 1000 nM | CC(=O)OCC(=O)N1CCc2cc3c(cc2C1CCc1ccc(Cl)cc1)OCO3 (stereo not drawn) [Example 146]
47 | < 100 nM | CCC(=O)N1CCc2cc3c(cc2C1CCc1ccc(Cl)cc1)OCO3 (stereo not drawn) [Example 147]
48 | 100 to 1000 nM | CC(C)COC(=O)N1CCc2cc3c(cc2C1CCc1ccc(Cl)cc1)OCO3 (stereo not drawn) [Example 148]
49 | 100 to 1000 nM | CC(C)(C)CC(=O)N1CCc2cc3c(cc2C1CCc1ccc(Cl)cc1)OCO3 (stereo not drawn) [Example 149]
50 | 100 to 1000 nM | O=C(C=Cc1ccccc1)N1CCc2cc3c(cc2C1CCc1ccc(Cl)cc1)OCO3 (stereo not drawn) [Example 150]

Row | SMILES | IC50
51 | O=C(C=Cc1ccccc1)N1CCc2cc3c(cc2C1CCc1ccc(F)cc1)OCO3 (stereo not drawn) [Example 108] | 100 to 1000 nM
52 | COC(=O)N1CCc2ccc(OC)cc2C1CCc1ccc(F)cc1 (stereo not drawn) [Example 113] | < 100 nM
53 | COC(=O)N1CCc2cc3c(cc2C1CCc1ccc(F)cc1)OCC3 (stereo not drawn) [Example 129] | 100 to 1000 nM
54 | O=C(CCl)N1CCc2cc3c(cc2C1CCc1ccc(Cl)cc1)OCO3 (stereo not drawn) [Example 142] | < 100 nM
